Experimental data taken from patent publication US10913781B2, “Pepducin design and use” (Tufts Medical Center, Inc., priority 2011, dated 2021).
Peptide text beside a SMILES is read from it. * marks the point of attachment. Palmitoyl = CCCCCCCCCCCCCCCC(=O)*

Assays:
Type in all cases: cell-based
PAR1 [1] = target: T1, PAR1 (Homo sapiens, UniProt P25116); assay: Human platelet Ca2+ flux stimulated with SFLLRN; parameters: endogenous in cells; host or cells: A549, HOP62, H1299, H522, H226, HOP92 lung carcinoma lines; settings: human platelets
T1 sequence (P25116 22-425): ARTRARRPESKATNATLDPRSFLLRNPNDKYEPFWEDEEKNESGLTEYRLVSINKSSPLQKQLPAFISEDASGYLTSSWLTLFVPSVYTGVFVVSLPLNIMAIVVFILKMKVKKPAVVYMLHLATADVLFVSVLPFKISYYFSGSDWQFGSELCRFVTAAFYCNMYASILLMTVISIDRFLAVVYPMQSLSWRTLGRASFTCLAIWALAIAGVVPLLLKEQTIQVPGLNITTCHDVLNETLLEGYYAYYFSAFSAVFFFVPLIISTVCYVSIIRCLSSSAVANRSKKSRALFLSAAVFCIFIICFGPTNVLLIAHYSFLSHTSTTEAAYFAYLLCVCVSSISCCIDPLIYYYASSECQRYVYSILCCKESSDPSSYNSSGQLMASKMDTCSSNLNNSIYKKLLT
From the text: FIG. 8 illustrates data that show membrane-tethered PAR1-i3 and i1 pepducins block Ca^2+ flux and migration. (A): Model of PAR1 based on the […] structure of rhodopsin from Swift et al., 2006. Protease cleaved receptor results in generation of a new tethered ligand. The topologic arrangement of the […] to i4 loops and G proteins are illustrated. Schematic diagram of palmitoylated PAR1 i3 and i1 pepducins and their amino acid sequence composition are shown. (B): Effect of PAR1 pepducins on human platelets Ca^2+ flux. Platelets were preincubated with indicated concentrations of pepducins and stimulated with SFLLRN. Effect of blockade is expressed as the percentage of full Ca^2+ signal generated with SFLLRN in the absence of inhibitors. (C): Migration of A549 cells toward 0.3 nmol/L thrombin or 10 μmol/L […] in the presence or absence of 3 μmol/L P1pal-7, P1pal-10S, or P1pal-i1-11 after 18 hours. […] Cell migration is expressed as fold migration of ligand-mediated migration divided by basal migration.
First, it had been previously shown that PAR1 strongly couples to Gq in human platelets as assessed by Ca^++ signaling. In order to determine effect of i1 and i3 pepducins on PAR1 mediated Gq-PLCβ-lnsP3 signaling, human platelets were pretreated with PAR1 pepducins and stimulated with SFLLRN, before the rate of Ca^++ flux was measured.

PAR1 [2] = target: T1, PAR1; assay: Migration of primary patient lung tumor cells; parameters: endogenous in cells; host or cells: A549, HOP62, H1299, H522, H226, HOP92 lung carcinoma lines
Description: FIG. 12 illustrates that PAR1 is a promigratory factor in lung cancer cells. (A-F): Inhibition of lung cancer migration in adenocarcinomas A549, HOP62, H1299 and H522, H226 squamous, and HOP92 large cell using PAR1 pepducins. Pepducins at […] (P1pal-7, P1pal-10S, P1pal-i1-11, or negative control P1pal-19EE) were added to the lower well. (G): Cell from primary lung tumors or nonmalignant control were pretreated with PAR1 pepducins and migration was determined (*P<0.05, **P<0.01).
Further experiments were carried out to determine whether migration of the primary carcinoma cell lines isolated from lung tumors could be inhibited by PAR1 pepducins (FIG. 12G). […] Likewise, the RWJ-56110 small-molecule antagonist of PAR1 (Andrade-Gordon, et al., Proc. Natl Acad Sci USA, 96 (1999), pp. 12257-12262) suppressed up to 55% of the migration of primary lung tumor cells toward NIH-3T3 conditioned media. The PAR1 antagonist pepducin P1pal-7 and P1pal-i1-11 had no effect on the low-expressing PAR1 cell line derived from benign lung tissue, which migrated poorly (FIG. 12G).

PAR4 = target: T2, PAR4 (Homo sapiens, UniProt Q96RI0); assay: [3H]-InsP formation in COS7 cells transfected with PAR4; parameters: expressed in transfected cells; host or cells: COS7; settings: 100 μM AYPGKF, 30 min
T2 sequence (Q96RI0 18-385): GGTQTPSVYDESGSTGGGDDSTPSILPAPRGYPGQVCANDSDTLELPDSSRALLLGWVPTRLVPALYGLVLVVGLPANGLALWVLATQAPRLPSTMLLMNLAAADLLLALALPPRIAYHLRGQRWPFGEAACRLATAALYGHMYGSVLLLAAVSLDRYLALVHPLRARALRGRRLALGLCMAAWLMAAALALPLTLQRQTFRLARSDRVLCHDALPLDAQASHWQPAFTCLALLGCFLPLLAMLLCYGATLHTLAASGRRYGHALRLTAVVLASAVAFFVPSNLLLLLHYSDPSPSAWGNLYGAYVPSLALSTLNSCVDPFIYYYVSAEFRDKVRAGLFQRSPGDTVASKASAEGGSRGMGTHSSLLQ
Description: (A) PAR2 antagonist pepducins P2pal-18S and P2pal-14GQ inhibit calcium flux induced by PAR2 (SLIGRL) (SEQ ID NO:4) but not PAR1 (TFLLRN) (SEQ ID NO:2) agonists. SW620 cells were stably transfected with PAR1 and pretreated for 1 min with various concentrations of P2pal-18S or P2pal-14GQ and then stimulated with 30 μM PAR agonist. […] Cells were stimulated with 1 μM TFLLRN (SEQ ID NO:2), 1 μM SLIGRL (SEQ ID NO:4) or 100 μM AYPGKF (SEQ ID NO:5) and [^3H]-InsP formation measured over 30 min. (C) SW620 cells were treated with the indicated concentrations of P2pal-18S or P2pal-14GQ in the upper well of an 8-μm pore Boyden chamber and allowed to migrate for 18 h towards 10 μM of the PAR2 specific agonist SLIGRL in the lower chamber. The migration to RPMI/0.1% FBS represents random migration. (D) Migration of HEK cells transiently transfected with PAR2 (wild-type, WT), or PAR2-R36A/PAR2-RQ toward chemotactic gradients of 30 nM trypsin in the absence or presence of the indicated concentration of P2pal-18S for 18 h in a transwell apparatus ([…]). Data (n=2-4) are mean±SEM. *, P<0.05 and **, P<0.005.

Structure (SMILES)	Extent of inhibition of calcium mobilization (PAR1 [1])	Effect on migration of low-expressing PAR1 cell line derived from benign lung tissue (PAR1 [2])	Inhibition of InsP signaling from PAR4 (PAR4)
CCCCCCCCCCCCCCCC(=O)N[C@H](C(=O)N[C@@H](CC(C)C)C(=O)N[C@@H](CCCCN)C(=O)N[C@@H](CCSC)C(=O)N[C@@H](CCCCN)C(=O)N[C@H](C(=O)N[C@@H](CCCCN)C(=O)N[C@@H](CCCCN)C(=O)N1CCC[C@H]1C(=O)N[C@@H](C)C(=O)N[C@H](C(N)=O)C(C)C)C(C)C)[C@@H](C)CC [P1pal-i1-11] (Palmitoyl-ILKMKVKKPAV-NH2)	less effective in inhibiting the Gq mediated calcium signal	no effect	–
CCCCCCCCCCCCCCCC(=O)N[C@@H](CCCNC(=N)N)C(=O)N[C@@H](CO)C(=O)N[C@@H](CO)C(=O)N[C@@H](C)C(=O)N[C@@H](CCSC)C(=O)N[C@@H](CC(=O)O)C(=O)N[C@@H](CCC(=O)O)C(=O)N[C@@H](CC(N)=O)C(=O)N[C@@H](CO)C(=O)N[C@@H](CCC(=O)O)C(=O)N[C@@H](CCCCN)C(=O)N[C@@H](CCCCN)C(=O)N[C@@H](CCCNC(=N)N)C(=O)N[C@@H](CCCCN)C(=O)N[C@@H](CO)C(=O)N[C@@H](C)C(=O)N[C@H](C(=O)N[C@@H](CCCCN)C(N)=O)[C@@H](C)CC [P2pal-18S]	–	–	do not inhibit
